Assay results from patent publication US6653322B1, “Therapeutic combinations of RAR antagonists and RXR agonists and use thereof” (Bristol-Myers Squibb Company, priority 1996, dated 2003).
Entries after “also recorded” stand apart in the source; their conditions may differ.

Columns and labels:
NB4 cells [1] = assay: NB4 cell differentiation (TPA-induced nitroblue tetrazolium reduction); type: cell-based, human
Experimental: NB4 cells were obtained from ATCC and were grown in RPMI-1640 (plus 2 mM L-glutamine) containing 100 […] penicillin and streptomycin and 8% fetal bovine serum (FBS). Cells were treated for four days with retinoid(s) or ethanol vehicle, then washed and resuspended at a density of 5×10^5 cells/ml. 50 microliter aliquots of this suspension were spread over poly-L-lysine coated slides (Sigma, St. Louis, Mo.). After washing with PBS (137 mM NaCl, 2.7 mM KCl, 4.3 mM Na2HPO4, 1.4 mM KH2PO4), the cells were fixed for 10 minutes in 2% formalin (37% formaldehyde in 15% methanol in water) at room temperature.
Following fixation, cells were washed three times in PBS and were scored by TPA (12-O-tetradecanoyl-phorbol-13-acetate, 200 ng/ml)-induced nitroblue tetrazolium reduction (Sigma Fast BCIP/NBT) for 30 minutes at 37° C. Samples were examined for cellular and nuclear morphology with an optical microscope (Diavert Leitz); the percentage of differentiated cells was determined by counting at least 300 cells for each treatment.

NB4 cells [2] = assay: NB4 cell apoptosis (flow cytometry, DNA fragmentation); type: cell-based, human; details: for Induction of NB4 cell apoptosis: retinoid alone
Experimental: The cell cycle distribution and presence of “sub-2N” cells and particles in control and retinoid-treated NB4 cells were determined by cell cycle flow cytometry based on DNA content, using an EPICS Profile II cell sorter (Coulter Electronics, Inc., Hialeah, Fla.) equipped with a 15 watt argon laser tuned to an excitation wavelength of 488 nm and filter sets providing an emission wavelength of 575 nm. Cultures of untreated or retinoid-treated cells were centrifuged (250×g) and fixed in 70% ethanol and stored at −20° C. Following two washes in PBS, the cells and subcellular particles were incubated in 1 mg/ml RNase A (59 Kunitz units/mg, Sigma Chemical Co., St. Louis, Mo.) for 30 minutes at 37° C., centrifuged and resuspended in PBS at a concentration of approximately 10^6 cells per ml. Ethidium bromide was added to a final concentration of 50 micrograms/ml immediately prior to sample analysis.
The induction of apoptosis by retinoids was also determined by the appearance of a “ladder” of fragmented DNA as previously described (Nagy, L., et al., Mol. Cell. Biol. 15:3540-3551 (1995)). Cells were refed with fresh media and retinoids every 2 days, and the cell density was maintained well below saturation in order to prevent cell death due to nutrient and/or mitogen depletion. Five micrograms per lane of DNA was electrophoresed in a 1.5% agarose gel, followed by staining with ethidium bromide, and DNA bands were visualized and photographed via ultraviolet illumination of ethidium bromide fluorescence.

RARβ2 and RARγ mRNA = assay: RARβ/RARγ expression by reverse transcriptase PCR in NB4 cells; type: cell-based, human
Experimental: Total RNA was isolated and reverse transcribed in a buffer solution comprising 10 mM Tris-HCl (pH 8.3), 50 mM KCl, 2 mM MgCl2 and 1 mM of all four deoxynucleoside triphosphates, using 25 units of AMV reverse transcriptase in the presence of 50 units of RNAsin for 60 minutes at 42° C. For reverse transcription, 25 picomoles per reaction of the common antisense primer 5′-[…]-3′ (SEQ ID NO:6) for either RARα, β or γ was used. For each PCR reaction the common antisense primer, one-fourth of the reverse transcribed product and the following specific sense primers were used: […]
The amplification was carried out in a final volume of 0.1 ml, using Taq DNA polymerase (Perkin Elmer Cetus) according the manufacturer's instructions. Eighteen PCR cycles (30 seconds at 94° C., 30 seconds at 65° C. and 30 seconds at 72° C.) were performed, and a 10 microliter aliquot of each reaction was analyzed by electrophoresis on a 6% native polyacrylamide gel, which was then stained with ethidium bromide and examined by ultraviolet illumination.

PML-RARα = target: T1, PML-RARα (Homo sapiens, UniProt P10276+P29590); assay: Anti-PML immunofluorescence: association of PML/PML-RARα with nuclear bodies in NB4 cells; type: cell-based; details: with SR11237
T1 construct: induced the association of endogenous PMUPML-RARα with nuclear bodies; endogenous in cells; host or cells: NB4 human acute promyelocytic leukemia cells
T1 sequence (P10276 61-462 limits assumed): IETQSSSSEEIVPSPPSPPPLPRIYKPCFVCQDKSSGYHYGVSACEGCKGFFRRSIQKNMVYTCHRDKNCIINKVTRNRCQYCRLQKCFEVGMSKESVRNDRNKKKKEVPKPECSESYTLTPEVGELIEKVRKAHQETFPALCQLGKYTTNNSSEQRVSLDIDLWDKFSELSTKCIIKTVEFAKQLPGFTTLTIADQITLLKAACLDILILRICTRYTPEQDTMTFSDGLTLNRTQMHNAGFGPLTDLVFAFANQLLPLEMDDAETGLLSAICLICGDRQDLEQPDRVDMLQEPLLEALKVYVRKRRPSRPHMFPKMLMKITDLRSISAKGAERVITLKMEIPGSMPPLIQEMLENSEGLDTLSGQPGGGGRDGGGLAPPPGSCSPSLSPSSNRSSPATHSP
Experimental: Following fixation, cells were permeabilized with 0.1% Triton X-100 in PBS (buffer A). After washing in PBS, the cells were blocked in 0.5 mg/ml normal goat IgG (Jackson Laboratories, Bar Harbor, Me.) in PBS for 30 minutes at room temperature, and thereafter incubated overnight at 4° C. with a polyclonal anti-PML antibody (the kind gift of Dr. Anne Dejean), diluted in buffer A containing 0.5 mg/ml normal goat IgG (buffer B) at 4° C. After three washes in buffer A, the cells were incubated with donkey anti-rabbit IgG (H+L) conjugated with cyanine 3 (Jackson Laboratories, Bar Harbor, Me.) in buffer B for 1 hour at room temperature. Following washes in PBS the mounted samples were examined with a confocal laser microscope (TCS, Leica) equipped with cyanine optics for PML localization.

AP1 activity = details: via all three RARs; Chen et al. 1995; cited from earlier work
GAL-RARα = target: T2, GAL-RARα (Homo sapiens, UniProt P10276); assay: HeLa reporter cells, agonistic/antagonistic activity of RAR-specific ligands; type: cell-based; details: FIG. 1, FIG. 2
T2 construct: expressed in transfected cells; host or cells: HeLa
T2 sequence (P10276 183-417 limits assumed): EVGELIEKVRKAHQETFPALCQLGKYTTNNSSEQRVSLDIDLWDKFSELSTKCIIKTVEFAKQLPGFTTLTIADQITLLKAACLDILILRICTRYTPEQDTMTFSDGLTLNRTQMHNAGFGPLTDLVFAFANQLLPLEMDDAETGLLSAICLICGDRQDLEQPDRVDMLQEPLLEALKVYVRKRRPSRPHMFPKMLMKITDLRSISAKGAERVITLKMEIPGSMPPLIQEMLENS
Experimental: (§1) HeLa reporter cell lines containing a retinoid-inducible luciferase reporter gene (17 m)5-globin-Luc in the stably transfected reporter constructs GAL-RARα, GAL-RARβ or GAL-RARγ were constructed and used as described previously (Chen, J. Y., et al., EMBO J. 14:1187-1197 (1995)). Cells were treated with RAR-specific ligands, and luciferase-induced bioluminescence was monitored in vivo using a single-photon-counting camera (Hamamatsu) by seeding equal amounts of cells in 24-well tissue culture plates and incubating them with increasing concentrations of retinoids alone, or in the presence of T-RA to determine the antagonistic potential of the ligands.

GAL-RARβ = target: T3, GAL-RARβ (Homo sapiens, UniProt P10826); assay: as above; type: cell-based; details: FIG. 1
T3 construct: expressed in transfected cells; host or cells: HeLa
T3 sequence (P10826 183-417 limits assumed): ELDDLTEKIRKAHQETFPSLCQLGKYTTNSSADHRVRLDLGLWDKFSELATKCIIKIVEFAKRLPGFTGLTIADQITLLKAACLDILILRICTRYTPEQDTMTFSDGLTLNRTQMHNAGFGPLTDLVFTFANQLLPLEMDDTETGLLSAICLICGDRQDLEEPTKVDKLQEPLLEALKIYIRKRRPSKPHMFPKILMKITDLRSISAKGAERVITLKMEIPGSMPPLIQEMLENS
Experimental: as §1

GAL-RARγ = target: T4, GAL-RARγ (Homo sapiens, UniProt P13631); assay: as above; type: cell-based; details: FIG. 1
T4 construct: expressed in transfected cells; host or cells: HeLa
T4 sequence (P13631 185-419 limits assumed): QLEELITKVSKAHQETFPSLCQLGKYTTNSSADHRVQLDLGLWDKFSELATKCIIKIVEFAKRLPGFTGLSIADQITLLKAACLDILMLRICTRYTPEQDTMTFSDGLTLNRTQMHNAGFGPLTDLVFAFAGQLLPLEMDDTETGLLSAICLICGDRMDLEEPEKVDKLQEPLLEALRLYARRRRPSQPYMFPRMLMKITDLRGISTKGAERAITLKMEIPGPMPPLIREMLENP
Experimental: as §1

F9 EC cells = details: ligand on its own, Roy et al. 1995; cited from earlier work
P19 cells = details: ligand on its own, Roy et al. 1995; cited from earlier work
[3] = in presence of RXR agonist SR11237
[4] = retinoid alone at 1000 (concentration unit not given), 4 days
[5] = retinoid at 1 +100 nM SR11237, 4 days
[6] = retinoid at 10 +100 nM SR11237, 4 days
[7] = retinoid at 100 +100 nM SR11237, 4 days

SMILES | Induction of NB4 cell differentiation (NB4 cells [1]; [3]) | Percentage of NB4 cells differentiated (NB4 cells [1]; [4]) [%] | Percentage of NB4 cells differentiated (NB4 cells [1]; [5]) [%] | Percentage of NB4 cells differentiated (NB4 cells [1]; [6]) [%] | Percentage of NB4 cells differentiated (NB4 cells [1]; [7]) [%] | Induction of NB4 cell differentiation (NB4 cells [1]; retinoid on its own) | Antiproliferative and apoptotic effect on NB4 cells (NB4 cells [2]; in combination with SR11237) | Induction of NB4 cell apoptosis (NB4 cells [2]) | Expression of RARβ2 (and RARγ) by RT-PCR (RARβ2 and RARγ mRNA; retinoid alone) | RARβ and RARγ mRNA production (RARβ2 and RARγ mRNA; with SR11237) | Association of PML-RARα with nuclear bodies (PML-RARα) | Repression of AP1 activity (AP1 activity) | Block of differentiation induced by 1 nM Am80 (NB4 cells [1]; excess of the compound) | Percentage of NB4 cells differentiated (NB4 cells [1]; retinoid at 1000 +100 nM SR11237, 4 days) [%] | Binding to RARα (GAL-RARα) | Binding to RARβ (GAL-RARβ) | Binding to RARγ (GAL-RARγ) | Induction of differentiation and expression of RA target genes (F9 EC cells) | Induction of differentiation and expression of RA target genes (P19 cells)
CC1(C)CC=C(c2ccccc2)c2cc(/C=C/c3ccc(C(=O)O)cc3)ccc21 [Compound A] | induced differentiation with higher efficiency than T-RA or 9C-RA | <1 | <1 | 65 | 78 | ineffective on their own | strong antiproliferative and apoptotic effect | inefficient alone | no induction | efficient accumulation of RARβ and RARγ mRNA | indistinguishable from that seen in presence of RARα agonists | efficiently repressing AP1 activity via all three RARs |  |  |  |  |  |  | 
CC1(C)CC=C(c2cnc3ccccc3c2)c2cc(C(=O)Nc3ccc(C(=O)O)cc3)ccc21 [Compound B] | induced differentiation | <1 | <1 | 3 | 5 | ineffective on their own |  |  |  |  |  |  | completely blocked | 10 | lower binding affinity for RARα | does not bind | does not bind |  | 
CC1(C)CCC(C)(C)c2cc(C3(c4ccc(C(=O)O)cc4)OCCO3)ccc21 [SR11237] |  | <2 |  |  |  | ineffective on their own; also recorded: did not induce differentiation |  | inefficient alone |  |  |  |  |  |  |  |  |  | unable to induce | unable to induce
